One may read the IC50 as the concentration needed to halve the response being measured. A low value points to greater potency in that assay.

For one experiment, the system named is VEGFA. The experiment in a line: VEGFA ELISA assay (IC50). The experiment is classed as cell-based. The conditions noted are these: Homo sapiens, 786-0; 786-O cells, 24 h, VEGFA in culture supernatant by ELISA. The method, then: 786-O cells in the logarithmic growth phase were inoculated into a 96-well plate at a cell concentration of 65,000 cells per ml of culture liquid, 180 μL per well. The compounds were diluted to the corresponding concentrations, and 20 μL of compound solutions of various concentrations were added to the corresponding cell wells, so that the final concentrations of the compounds were 1.5 nM, 4.6 nM, 13.7 nM, 41.2 nM, 123.5 nM, 370.4 nM, 1111.1 nM, 3333.3 nM, and 10000 nM, respectively. After culturing for 24 h, the cell culture supernatant was collected and the VEGFA concentration was determined using an ELISA kit (purchased from Abeam). Finally, the reaction was terminated and the absorbance value of each well was measured at a wavelength of 450 nm using an ELISA reader. The IC50 values were calculated by GraphPadPrism. CellTiter-Glo reagent was used to measure cell viability.

In another experiment the test system is 786-O-HIF2α-Luc cells. Put plainly: Luciferase assay (HIF2α reporter gene cells). The experiment is classed as cell-based. The following applies: 18-20 h, luminescence. How it is done:
The luciferase LUC gene was stably transfected into 786-0 cells (purchased from ATCC) using Lipofectamine 3000 transfection reagent (purchased from Invitrogen) to construct HIF2α reporter gene cells (786-O-HIF2α-Luc cells). The experiment was performed when 786-O-HIF2α-Luc cells were in the logarithmic growth phase, the culture medium (RPMI MEDIUM 1640, purchased from Invitrogen) was discarded, and the cells were rinsed three times with PBS; trypsin (TrypLE, purchased from Invitrogen) was added to digest the cells, and the digestion was terminated with culture medium, 10% fetal bovine serum, 1% penicillin, and streptomycin. The cells were collected by centrifugation, and washed twice with PBS to remove phenol red in the culture medium. The cells were resuspended to an appropriate concentration. The cell density and viability were measured, to ensure that the cells with a viability of at least 90% were used in the assay.
The compounds at a gradient concentration were transferred into 384 wells using Echo550 (non-contact acoustic pipetting system, purchased from Labcyte), 25 nL/well. The cells were seeded into 384-well plates, with 4500 cells/well and 25 μL of culture medium, and the final concentrations of the compounds were 10000 nM, 3333 nM, 1111 nM, 370 nM, 123 nM, 41.1 nM, 13.7 nM, 4.6 nM, 1.5 nM, and 0.5 nM, respectively. The cells were cultured for 18-20 h under conditions of 37° C. and 5% CO2. Steady-Glo™ luciferase assay system (purchased from Promega) was added to a 384-well plate, 25 μL/well. Luminescence values were detected using Envision. The inhibition rate % was calculated based on the RLU (Record Luminescence) signal value of each well, and then the IC50 values of the corresponding compounds were calculated by fitting using Graphpad 8.0.
The IC50 data of the exemplary examples are provided in Table 2, where A stands for IC50≤0.1 μM; B stands for 0.1 μM<IC50≤0.5 μM; and C stands for IC50>0.5 μM.
(In general: A reporter such as luciferase makes a cellular process visible.)

As to `O=S(=O)(c1cn(-c2ccc(F)c(Cl)c2)c2c1[C@H](O)C(F)(F)CC2)C(F)(F)F` [Example 33, (S)-1-(3-chloro-4-fluorophenyl)-5,5-difluoro-3-((trifluoromethyl)sulfonyl)-4,5,6,7-tetrahydro-1H-indol-4-ol], the IC50 in the experiment on VEGFA was found to be 41 nM; with 786-O-HIF2α-Luc cells, 52 nM.
Regarding `N#Cc1ccc(-n2cc(S(=O)(=O)C(F)(F)F)c3c2CCC(F)(F)[C@H]3O)cc1C(F)F` [Example 35, (S)-4-(5,5-difluoro-4-hydroxyl-3-((trifluoromethyl)sulfonyl)-4,5,6,7-tetrahydro-1H-indol-1-yl)-2-(difluoromethyl)benzonitrile], the results for the IC50 with VEGFA and in the experiment on 786-O-HIF2α-Luc cells were 18 nM and 10 nM, respectively.
On to `O=S(=O)(c1cn(-c2ccc(F)c(C(F)F)c2)c2c1[C@H](O)CCC2)C(F)(F)F` [Example 52, (R)-1-(3-(difluoromethyl)-4-fluorophenyl)-3-((trifluoromethyl)sulfonyl)-4,5,6,7-tetrahydro-1H-indol-4-ol], for which the IC50 was 46 nM with VEGFA and 45 nM with 786-O-HIF2α-Luc cells.
For `CS(=O)(=NC#N)c1cn(-c2ccc(F)c(C(F)F)c2)c2c1[C@H](O)C(F)(F)CC2` (stereo partly drawn) [Example 59, N—(((S)-1-(3-(difluoromethyl)-4-fluorophenyl)-5,5-difluoro-4-hydroxyl-4,5,6,7-tetrahydro-1H-indol-3-yl)(methyl)(oxo)-16-sulfino)cyanamide], the IC50 in the experiment on VEGFA was 109 nM; with 786-O-HIF2α-Luc cells (class symbols), 100 to 500 nM.
With `N#Cc1ccc(-n2cc(C(F)(F)F)c3c2CCC(F)C3O)cc1C(F)F` (stereo not shown) [Example 107, 2-(difluoromethyl)-4-(5-fluoro-4-hydroxyl-3-(trifluoromethyl)-4,5,6,7-tetrahydro-1H-indol-1-yl)benzonitrile], the IC50 in the experiment with VEGFA was 34 nM; in the experiment with 786-O-HIF2α-Luc cells (class symbols) it was at most 100 nM.
